Patent US7582664B2, “Acylaminothiazole derivatives, preparation method thereof and use of same in therapeutics” (Sanofi-Aventis, priority 2004, dated 2009)

Molecular target: T1, gamma-secretase (Homo sapiens, UniProt P49768, M146L)
T1 construct: expressed in transfected cells; host or cells: CHO-K1 clone 30-12, co-expressing CT100 of APP and PS1 M146L
Assay: β-amyloid cellular test: inhibition of production of β-amyloid (β-A4) peptide, ELISA of cell supernatants
Assay type: cell-based
Settings: line CHO-K1 co-expressing the CT100 of APP and PS1 M146L clone 30-12; incubated 24-25 hours; secreted amyloid peptide by ELISA; read-out: EC50 (50% effective concentration), inhibition of production of the β-amyloid (β-A4) peptide
Excerpt: For the β-amyloid cellular test, the line CHO-K1 co-expressing the CT100 of APP and PS1 M146L clone 30-12 is used. The line targets the inhibition of gamma-secretase. […]
The amount of bound peptide is detected indirectly in the presence of a competitor corresponding to the truncated peptide, the biotin-coupled peptide 1-28, which is then detected with alkaline phosphatase-coupled streptavidin. The substrate, p-nitrophenyl phosphate (pNPP FAST p-Nitrophenyl Phosphate, Sigma N2770) gives a yellow soluble reaction product that can be read at 405 nm. […] After incubation for 30 minutes at room temperature, the reaction is quenched by adding 100 μl per well of 0.1M EDTA and the reading is taken at 405 nm.

SMILES: CCC[C@H](NC(=O)Cc1cc(F)cc(F)c1)C(=O)Nc1nc(C(=O)OC)c(-c2ccccc2Oc2ccc(F)cc2)s1 [Compound 13, Methyl 2-{2-(S)-[2-(3,5-difluorophenyl)acetylamino]-pentanoyl}amino-5-[2-(4-fluorophenoxy)phenyl]thiazole-4-carboxylate]
- EC50: 6 nM
